Results from PubChem BioAssay (NCI).
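1) Cells in 96-well plates. 2) Compound, 48 h, 5 concentrations. 3) Linear interpolation between surrounding doses. 4) Unreached endpoint = highest concentration. TGI is the concentration that stops growth completely.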

Experiments:
Experiment in all cases: DTP human tumour cell line panel, 48 h
NCI-H522 lung = test system: NCI-H522 lung
COLO 205 colon = test system: COLO 205 colon
RXF 393 renal = test system: RXF 393 renal
HOP-92 NSCLC = test system: HOP-92 NSCLC
SK-OV-3 ovarian = test system: SK-OV-3 ovarian
M14 melanoma = test system: M14 melanoma
SK-MEL-2 melanoma = test system: SK-MEL-2 melanoma
U251 CNS = test system: U251 CNS
HL-60(TB) leukemia = test system: HL-60(TB) leukemia
MALME-3M melanoma = test system: MALME-3M melanoma
MDA-MB-231 breast = test system: MDA-MB-231 breast
HCT-15 colon = test system: HCT-15 colon
BT-549 breast = test system: BT-549 breast
HT29 colon = test system: HT29 colon
PC-3 prostate = test system: PC-3 prostate
SW-620 colon = test system: SW-620 colon
NCI/ADR-RES ovarian = test system: NCI/ADR-RES ovarian
EKVX NSCLC = test system: EKVX NSCLC
LOX IMVI melanoma = test system: LOX IMVI melanoma
SF-268 CNS = test system: SF-268 CNS
KM12 colon = test system: KM12 colon
MDA-MB-435 = test system: MDA-MB-435
IGROV1 ovarian = test system: IGROV1 ovarian
SK-MEL-28 melanoma = test system: SK-MEL-28 melanoma
ACHN renal = test system: ACHN renal
MCF7 breast = test system: MCF7 breast
SR leukemia = test system: SR leukemia
DU-145 prostate = test system: DU-145 prostate
OVCAR-3 ovarian = test system: OVCAR-3 ovarian
NCI-H226 lung = test system: NCI-H226 lung
UO-31 renal = test system: UO-31 renal
SN12C renal = test system: SN12C renal
NCI-H460 lung = test system: NCI-H460 lung
CAKI-1 renal = test system: CAKI-1 renal
TK-10 renal = test system: TK-10 renal
HOP-62 NSCLC = test system: HOP-62 NSCLC
UACC-257 melanoma = test system: UACC-257 melanoma
UACC-62 melanoma = test system: UACC-62 melanoma
SNB-75 CNS = test system: SNB-75 CNS
OVCAR-8 ovarian = test system: OVCAR-8 ovarian
A549 NSCLC = test system: A549 NSCLC
HS 578T breast = test system: HS 578T breast
MDA-N = test system: MDA-N
RPMI-8226 leukemia = test system: RPMI-8226 leukemia
OVCAR-4 ovarian = test system: OVCAR-4 ovarian
SK-MEL-5 melanoma = test system: SK-MEL-5 melanoma
SF-295 CNS = test system: SF-295 CNS
SF-539 CNS = test system: SF-539 CNS
SNB-19 CNS = test system: SNB-19 CNS
HCC-2998 colon = test system: HCC-2998 colon
HCT-116 colon = test system: HCT-116 colon
NCI-H23 lung = test system: NCI-H23 lung
OVCAR-5 ovarian = test system: OVCAR-5 ovarian
A498 renal = test system: A498 renal
T-47D breast = test system: T-47D breast
786-0 renal = test system: 786-0 renal
MOLT-4 leukemia = test system: MOLT-4 leukemia
K-562 leukemia = test system: K-562 leukemia
CCRF-CEM leukemia = test system: CCRF-CEM leukemia

Structure (SMILES): C=C1CC/C=C(\C)CCC[C@H](C)[C@@H](O)[C@@H]2OC(=O)C(=C)[C@@H]2C[C@H]1O
- TGI (NCI-H522 lung): 4.96 µM
- TGI (COLO 205 colon): 29.9 µM
- TGI (RXF 393 renal): 22.2 µM
- TGI (HOP-92 NSCLC): 7.22 µM
- TGI (SK-OV-3 ovarian): > 64.1 µM
- TGI (M14 melanoma): 28.4 µM
- TGI (SK-MEL-2 melanoma): 27 µM
- TGI (U251 CNS): 50.2 µM
- TGI (HL-60(TB) leukemia): > 100 µM
- TGI (MALME-3M melanoma): 22.1 µM
- TGI (MDA-MB-231 breast): 50.5 µM
- TGI (HCT-15 colon): 13.1 µM
- TGI (BT-549 breast): 3 µM
- TGI (HT29 colon): 15.2 µM
- TGI (PC-3 prostate): 23.1 µM
- TGI (SW-620 colon): > 32.4 µM
- TGI (NCI/ADR-RES ovarian): 27.2 µM
- TGI (EKVX NSCLC): > 42.6 µM
- TGI (LOX IMVI melanoma): 25.9 µM
- TGI (SF-268 CNS): 23.1 µM
- TGI (KM12 colon): 29.9 µM
- TGI (MDA-MB-435): 17.3 µM
- TGI (IGROV1 ovarian): 13.8 µM
- TGI (SK-MEL-28 melanoma): 22.2 µM
- TGI (ACHN renal): 9.5 µM
- TGI (MCF7 breast): > 42.7 µM
- TGI (SR leukemia): > 100 µM
- TGI (DU-145 prostate): 17.8 µM
- TGI (OVCAR-3 ovarian): 22.6 µM
- TGI (NCI-H226 lung): 11.5 µM
- TGI (UO-31 renal): 19.2 µM
- TGI (SN12C renal): 42 µM
- TGI (NCI-H460 lung): 27.1 µM
- TGI (CAKI-1 renal): 17 µM
- TGI (TK-10 renal): 4.5 µM
- TGI (HOP-62 NSCLC): 30.8 µM
- TGI (UACC-257 melanoma): 31.9 µM
- TGI (UACC-62 melanoma): 25.9 µM
- TGI (SNB-75 CNS): 24.7 µM
- TGI (OVCAR-8 ovarian): 16.7 µM
- TGI (A549 NSCLC): 33.9 µM
- TGI (HS 578T breast): 33.9 µM
- TGI (MDA-N): 35.9 µM
- TGI (RPMI-8226 leukemia): > 21.9 µM
- TGI (OVCAR-4 ovarian): 51.7 µM
- TGI (SK-MEL-5 melanoma): 22.6 µM
- TGI (SF-295 CNS): 32.9 µM
- TGI (SF-539 CNS): 6.94 µM
- TGI (SNB-19 CNS): 28.7 µM
- TGI (HCC-2998 colon): 50.5 µM
- TGI (HCT-116 colon): 30.5 µM
- TGI (NCI-H23 lung): 26.8 µM
- TGI (OVCAR-5 ovarian): 39.2 µM
- TGI (A498 renal): > 100 µM
- TGI (T-47D breast): 47.1 µM
- TGI (786-0 renal): 18.6 µM
- TGI (MOLT-4 leukemia): 9.62 µM
- TGI (K-562 leukemia): > 38.8 µM

Structure (SMILES): CC(C)=CCC/C(C)=C/CC/C(C)=C/CC(CO)N(C)CC/C=C(\C)CCC=C(C)C (stereo unspecified)
- TGI (NCI-H522 lung): 3.89 µM
- TGI (COLO 205 colon): 6.85 µM
- TGI (RXF 393 renal): 12.8 µM
- TGI (HOP-92 NSCLC): 8.85 µM
- TGI (SK-OV-3 ovarian): 28.9 µM
- TGI (M14 melanoma): 3.75 µM
- TGI (SK-MEL-2 melanoma): 28.6 µM
- TGI (U251 CNS): 14.5 µM
- TGI (MALME-3M melanoma): 8.75 µM
- TGI (MDA-MB-231 breast): 22.6 µM
- TGI (HCT-15 colon): 14.8 µM
- TGI (BT-549 breast): 27.5 µM
- TGI (HT29 colon): 14.4 µM
- TGI (PC-3 prostate): 20.2 µM
- TGI (SW-620 colon): 13.7 µM
- TGI (NCI/ADR-RES ovarian): 16.4 µM
- TGI (EKVX NSCLC): 23.4 µM
- TGI (LOX IMVI melanoma): 7.56 µM
- TGI (SF-268 CNS): 26.7 µM
- TGI (KM12 colon): 14.5 µM
- TGI (MDA-MB-435): 13.2 µM
- TGI (IGROV1 ovarian): 16 µM
- TGI (CCRF-CEM leukemia): > 25.2 µM
- TGI (SK-MEL-28 melanoma): 14.4 µM
- TGI (ACHN renal): 23.8 µM
- TGI (MCF7 breast): 4.8 µM
- TGI (SR leukemia): 4.8 µM
- TGI (DU-145 prostate): 23.7 µM
- TGI (OVCAR-3 ovarian): 27.8 µM
- TGI (NCI-H226 lung): 28.4 µM
- TGI (UO-31 renal): 17.9 µM
- TGI (SN12C renal): 17.4 µM
- TGI (NCI-H460 lung): 15.8 µM
- TGI (CAKI-1 renal): 19.2 µM
- TGI (TK-10 renal): 22.7 µM
- TGI (HOP-62 NSCLC): 15 µM
- TGI (UACC-257 melanoma): 19.3 µM
- TGI (UACC-62 melanoma): 29.9 µM
- TGI (SNB-75 CNS): 25 µM
- TGI (OVCAR-8 ovarian): 20.2 µM
- TGI (A549 NSCLC): 17.5 µM
- TGI (HS 578T breast): 16.7 µM
- TGI (MDA-N): 12.4 µM
- TGI (RPMI-8226 leukemia): 10.1 µM
- TGI (OVCAR-4 ovarian): 22.4 µM
- TGI (SK-MEL-5 melanoma): 23.2 µM
- TGI (SF-295 CNS): 19.9 µM
- TGI (SF-539 CNS): 9.76 µM
- TGI (SNB-19 CNS): 21.5 µM
- TGI (HCC-2998 colon): 10.8 µM
- TGI (HCT-116 colon): 6.46 µM
- TGI (NCI-H23 lung): 21.8 µM
- TGI (OVCAR-5 ovarian): 21.2 µM
- TGI (A498 renal): 28.4 µM
- TGI (T-47D breast): 10.7 µM
- TGI (786-0 renal): 4.89 µM
- TGI (MOLT-4 leukemia): 6.69 µM
- TGI (K-562 leukemia): 3.7 µM
